# Experimental data published in article PMC6032158, “Structure–Activity Relationship of Piplartine and Synthetic Analogues against Schistosoma mansoni and Cytotoxicity to Mammalian Cells” (International Journal of Molecular Sciences, 2018).
# Entries after “also recorded” stand apart in the source; their conditions may differ.
# Key:
# [1] = tested on: 49-day-old S. mansoni adult worms; experiment: In vitro experiments with adult worms of S. mansoni (mortality, motor activity); format: cell-based, Schistosoma mansoni; conditions: for Dead Worms (%) F / Motor Activity Reduction (%) Significant F / Motor Activity Reduction (%) Slight F: female worms; for Dead Worms (%) M / Motor Activity Reduction (%) Significant M / Motor Activity Reduction (%) Slight M: male worms
# Outline: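 BH-strain worm pairs recovered from hamsters 49 days post-infection, washed in RPMI 1640 with penicillin, streptomycin and amphotericin B, and cultured as mated pairs with or without drug for 96 h. Motor activity changes and death were scored by microscopy.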
# [2] = tested on: murine fibroblast (NIH-3T3) cells; experiment: MTT cytotoxicity assay in murine fibroblasts; format: cell-based; design: Emax: dose or concentration left out as unconfirmed
# Outline: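 NIH-3T3 cells exposed 24 h to samples at 25–800 µg/mL in 3% DMSO, with 3% DMSO as control. MTT (5 mg/mL stock) added for 2 h, formazan dissolved in DMSO, absorbance read at 595 nm.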
# [3] = tested on: S. mansoni schistosomula and adult worms; design: method as in PMID 20832410, PMID 22796749; conditions: cited from earlier work
# [4] = tested on: mouse BALB/cN macrophage (J774A.1) cell line; experiment: Cell viability by flow cytometry in macrophages; conditions: 24 h, 25, 100 and 400 µg/mL, vs DMEM control
# J774A.1 cells = experiment: Cell death mechanism, annexin-V FITC / propidium iodide staining by flow cytometry; format: cell-based, mouse; conditions: J774A.1, 24 h; piplartine 25 μg/mL, 14B 400 μg/mL
# Experimental: Cells were then treated with 2 µL of annexin-V FITC (Apoptosis Detection Kit; BD Biosciences, Franklin Lakes, NJ, USA) and 2 µL of propidium iodide (PI, 50 µg/mL) for 15 min in the dark at room temperature. Next, 100 µL binding buffer was added and samples were analysed by flow cytometry (BD LSFortessa^TM, Franklin Lakes, NJ, USA). A total of 20,000 events were collected per sample.
smiles,measurement,setting,value
"COc1cc(/C=C/C(=O)N2CCC=CC2=O)cc(OC)c1OC [Piplartine, 3,4,5-trimethoxycinnamoyl-N-dihydropyridin-2-one]",Dead Worms (%) F,"[1]; 5 µM, 24 h",0%
same,Motor Activity Reduction (%) Significant F,"[1]; 5 µM, 24 h",0%
same,Motor Activity Reduction (%) Slight F,"[1]; 5 µM, 24 h",100%
same,Dead Worms (%) M,"[1]; 5 µM, 24 h",0%
same,Motor Activity Reduction (%) Significant M,"[1]; 5 µM, 24 h",0%
same,Motor Activity Reduction (%) Slight M,"[1]; 5 µM, 24 h",100%
same,Dead Worms (%) F,"[1]; 5 µM, 48 h",0%
same,Motor Activity Reduction (%) Significant F,"[1]; 5 µM, 48 h",0%
same,Motor Activity Reduction (%) Slight F,"[1]; 5 µM, 48 h",100%
same,Dead Worms (%) M,"[1]; 5 µM, 48 h",0%
same,Motor Activity Reduction (%) Significant M,"[1]; 5 µM, 48 h",0%
same,Motor Activity Reduction (%) Slight M,"[1]; 5 µM, 48 h",100%
same,Dead Worms (%) F,"[1]; 5 µM, 72 h",0%
same,Motor Activity Reduction (%) Significant F,"[1]; 5 µM, 72 h",0%
same,Motor Activity Reduction (%) Slight F,"[1]; 5 µM, 72 h",100%
same,Dead Worms (%) M,"[1]; 5 µM, 72 h",0%
same,Motor Activity Reduction (%) Significant M,"[1]; 5 µM, 72 h",0%
same,Motor Activity Reduction (%) Slight M,"[1]; 5 µM, 72 h",100%
same,Dead Worms (%) F,"[1]; 5 µM, 96 h",60%
same,Motor Activity Reduction (%) Significant F,"[1]; 5 µM, 96 h",60%
same,Motor Activity Reduction (%) Slight F,"[1]; 5 µM, 96 h",0%
same,Dead Worms (%) M,"[1]; 5 µM, 96 h",60%
same,Motor Activity Reduction (%) Significant M,"[1]; 5 µM, 96 h",60%
same,Motor Activity Reduction (%) Slight M,"[1]; 5 µM, 96 h",0%
same,Dead Worms (%) F,"[1]; 10 µM, 24 h",100%
same,Motor Activity Reduction (%) Significant F,"[1]; 10 µM, 24 h",100%
same,Motor Activity Reduction (%) Slight F,"[1]; 10 µM, 24 h",0%
same,Dead Worms (%) M,"[1]; 10 µM, 24 h",100%
same,Motor Activity Reduction (%) Significant M,"[1]; 10 µM, 24 h",100%
same,Motor Activity Reduction (%) Slight M,"[1]; 10 µM, 24 h",0%
same,Dead Worms (%) F,"[1]; 10 µM, 48 h",100%
same,Motor Activity Reduction (%) Significant F,"[1]; 10 µM, 48 h",100%
same,Motor Activity Reduction (%) Slight F,"[1]; 10 µM, 48 h",0%
same,Dead Worms (%) M,"[1]; 10 µM, 48 h",100%
same,Motor Activity Reduction (%) Significant M,"[1]; 10 µM, 48 h",100%
same,Motor Activity Reduction (%) Slight M,"[1]; 10 µM, 48 h",0%
same,Dead Worms (%) F,"[1]; 10 µM, 72 h",100%
same,Motor Activity Reduction (%) Significant F,"[1]; 10 µM, 72 h",100%
same,Motor Activity Reduction (%) Slight F,"[1]; 10 µM, 72 h",0%
same,Dead Worms (%) M,"[1]; 10 µM, 72 h",100%
same,Motor Activity Reduction (%) Significant M,"[1]; 10 µM, 72 h",100%
same,Motor Activity Reduction (%) Slight M,"[1]; 10 µM, 72 h",0%
same,Dead Worms (%) F,"[1]; 10 µM, 96 h",100%
same,Motor Activity Reduction (%) Significant F,"[1]; 10 µM, 96 h",100%
same,Motor Activity Reduction (%) Slight F,"[1]; 10 µM, 96 h",0%
same,Dead Worms (%) M,"[1]; 10 µM, 96 h",100%
same,Motor Activity Reduction (%) Significant M,"[1]; 10 µM, 96 h",100%
same,Motor Activity Reduction (%) Slight M,"[1]; 10 µM, 96 h",0%
same,concentrations active against S. mansoni,[1]; adult worms,5 to 10 µM
same,activity against S. mansoni adult worms (in words),"[1]; analogues 50, 25, 10 and 5 μM, piplartine 5 and 10 μM, up to 96 h",showed activity against the parasite 24 h after incubation
same,effect on NIH-3T3 cell viability (in words),"[2]; MTT, 24 h exposure, 25 to 800 µg/mL","decreased cell viability after 24 h of exposure, exhibiting considerable toxicity; also recorded: showed toxicity at all concentrations tested"
same,Emax,"[2]; Mus musculus, NIH3T3, 24 h",96.94 ± 0.12%
same,concentration with in vitro schistosomicidal activity,[3],10 µM
same,effect on J774A.1 cell viability (in words),[4],significantly (p < 0.05) affected cell viability at concentrations of 25 and 100 µg/mL
same,effect on J774A.1 cell viability (in words),[4]; listed as piplartine,more toxic to mammalian cells than the analogues
same,annexin-V FITC staining (apoptosis marker) vs DMEM negative control (in words),J774A.1 cells,significant (p < 0.05) increase in annexin-V FITC staining
